According to patent EP2289553A1 (ETH Zurich, priority 2009, dated 2011):
Like-named read-outs stand apart in the source and are kept apart here.

Key:
[1] = Dispersant binding reversibility: successive filtrations and re-dispersions in HEPES, followed by DLS; format: physicochemical; details: room temperature, anchor named, coupled to PEG(MW 5 kDa)
Description: DLS: DLS experiments were run on a Zetasizer Nano ZS (Malvern, UK) in the 173° backscattering mode. Because intensity weighted diameters scale with r^6 and thus large particles are predominant, volume weighted data which scale with r^3 were analyzed using the multiple narrow modes evaluation incorporated into the Malvern software. Temperature dependent DLS experiments have been performed in HEPES at an iron oxide nanoparticle concentration of 200 µg/ml. Solutions were filtered with 200 nm Minisart syringe filters (Sartorius, Germany) prior to DLS analysis. These suspensions were heated from 25 to 90°C in 5°C steps with 10 min equilibration time before the respective DLS experiment. The dispersant binding reversibility was tested on iron oxide nanoparticle HEPES solutions (500 µg/ml) at room temperature. Solutions were repeatedly filtered using Microcon filters with a cut-off of 30 kDa (Millipore, MA, USA) by centrifuging these solutions at […] for 20 min (MiniSpin, Vaudaux Eppendorf, Switzerland). After filtration, the filter cake was re-suspended in HEPES (0.5 ml) and equilibrated for 24 h at room temperature before the next DLS experiment was performed.
The binding reversibility of these dispersants was tested by successive filtrations and re-dispersions of the resulting iron oxide nanoparticle filter cakes in HEPES

[2] = pKa determination by titration; format: physicochemical; details: titration in Millipore water containing 150 mM NaCl, for nitrocatechols and mimosine one of the pKa values
Description: pKa determination: 2 mM of the respective anchoring group was dissolved in Millipore water containing 150 mM NaCl. These solutions were titrated with 0.1 M HCl and NaOH respectively using a SevenMulti pH meter (Mettler Toledo, Switzerland).

Row | Compound | number of filtrations within which nanoparticles agglomerated [1] | pKa ([2]; read-out: pKa) | pKa [2] | number of filtrations for which nanoparticles remained stable [1]
1 | NC(Cn1ccc(=O)c(O)c1)C(=O)O (stereo not shown) [mimosine] | 5-7 filtrations | ~6.5 | – | –
2 | hydroxypyridine | 0-3 filtrations | – | – | –
3 | NCCc1cc(O)c(O)cc1[N+](=O)[O-] [nitrodopamine] | – | – | around 6.5 | –
4 | hydroxypyrone | 0-3 filtrations | – | – | –
5 | NCCc1ccc(O)c(O)c1 [dopamine] | 0-3 filtrations | > 9 | – | –
6 | NC(Cc1cc(O)c(O)cc1[N+](=O)[O-])C(=O)O (stereo not shown) | – | ~6.5 | – | more than 9 filtrations
7 | hydroxydopamine | 0-3 filtrations | – | > 9 | –
8 | N[C@@H](Cc1ccc(O)c(O)c1)C(=O)O [DOPA] | 5-7 filtrations | > 9 | – | –
